Measured values: patent US20230257396A1, “MACROCYCLES AND THEIR USE” (BLOSSOMHILL THERAPEUTICS, INC., priority 2020, published 2023)

What was measured:
Assay in all cases: KINOMEscan kinase binding assay (Eurofins/DiscoveRx), % Ctrl
kinases [1] = biological target: T1, kinases (Homo sapiens, UniProt P00519, Q252H); settings: 1 μM; for % Ctrl, ABL1(Q252H)-nonphosphorylated: target ABL1(Q252H)-nonphosphorylated; for % Ctrl, ABL1(Q252H)-phosphorylated: target ABL1(Q252H)-phosphorylated
T1 construct: purchased Eurofins/DiscoveRx; host or cells: E. coli BL21-derived host (T7 phage display) for most kinases; HEK-293 for the rest
Experimental: (§1) Kinase binding assays were performed at Eurofins/DiscoveRx using the general KINOMEscan Protocol (Fabian, M. A. et al., “A small molecule-kinase interaction map for clinical kinase inhibitors,” Nat. Biotechnol. 2005, 23(3):329-36). For most assays, kinase-tagged T7 phage strains were prepared in an E. coli host derived from the BL21 strain. E. coli were grown to log-phase and infected with T7 phage and incubated with shaking at 32° C. until lysis. The lysates were centrifuged and filtered to remove cell debris. The remaining kinases were produced in HEK-293 cells and subsequently tagged with DNA for qPCR detection. Streptavidin-coated magnetic beads were treated with biotinylated small molecule ligands for 30 minutes at room temperature to generate affinity resins for kinase assays. The liganded beads were blocked with excess biotin and washed with blocking buffer (SeaBlock (Pierce), 1% BSA, 0.05% Tween 20, 1 mM DTT) to remove unbound ligand and to reduce nonspecific binding. Binding reactions were assembled by combining kinases, liganded affinity beads, and test compounds in 1×binding buffer (20% SeaBlock, 0.17×PBS, 0.05% Tween 20, 6 mM DTT). All reactions were performed in polystyrene 96-well plates in a final volume of 0.135 mL. The assay plates were incubated at room temperature with shaking for 1 hour and the affinity beads were washed with washbuffer (1×PBS, 0.05% Tween 20). The beads were then re-suspended in elution buffer (1× PBS, 0.05% Tween 20, 0.5 μM non-biotinylated affinity ligand) and incubated at room temperature with shaking for 30 minutes. The kinase concentration in the eluates was measured by qPCR. Results for compounds tested in this assay at a given concentration are reported as “% Ctrl”, where lower numbers indicate stronger binding in the matrix.
(§2) (test compound signal-positive control signal)/(negative control signal-positive control signal) X100

kinases [2] = settings: 1 μM; for % Ctrl, EGFR(L747-E749del, A750P): target EGFR(L747-E749del, A750P); for % Ctrl, EGFR(L747-S752del, P753S): target EGFR(L747-S752del, P753S); for % Ctrl, EGFR(L747-T751del, Sins): target EGFR(L747-T751del, Sins); for % Ctrl, FLT3(ITD): target FLT3(ITD); for % Ctrl, FLT3(ITD, D835V): target FLT3(ITD, D835V); for % Ctrl, FLT3(ITD, F691L): target FLT3(ITD, F691L)
Experimental: as §1, §2

kinases [3] = biological target: T2, kinases (Homo sapiens, UniProt P00533, DEL746-750); settings: 1 μM; target EGFR(E746-A750del)
T2 construct: purchased Eurofins/DiscoveRx; host or cells: E. coli BL21-derived host (T7 phage display) for most kinases; HEK-293 for the rest
Experimental: as §1, §2

kinases [4] = biological target: T3, kinases (Homo sapiens, UniProt P10721, V559D/V654A); settings: 1 μM; target KIT(V559D, V654A)
T3 construct: purchased Eurofins/DiscoveRx; host or cells: E. coli BL21-derived host (T7 phage display) for most kinases; HEK-293 for the rest
Experimental: as §1, §2

kinases [5] = biological target: T4, kinases (Homo sapiens, UniProt P10721, T670I/V559D); settings: 1 μM; target KIT(V559D, T670I)
T4 construct: purchased Eurofins/DiscoveRx; host or cells: E. coli BL21-derived host (T7 phage display) for most kinases; HEK-293 for the rest
Experimental: as §1, §2

kinases [6] = biological target: T5, kinases (Homo sapiens, UniProt P10721, A829P); settings: 1 μM; target KIT(A829P)
T5 construct: purchased Eurofins/DiscoveRx; host or cells: E. coli BL21-derived host (T7 phage display) for most kinases; HEK-293 for the rest
Experimental: as §1, §2

kinases [7] = biological target: T6, kinases (Homo sapiens, UniProt P07949, V804M); settings: 1 μM; target RET(V804M)
T6 construct: purchased Eurofins/DiscoveRx; host or cells: E. coli BL21-derived host (T7 phage display) for most kinases; HEK-293 for the rest
Experimental: as §1, §2

kinases [8] = biological target: T7, kinases (Homo sapiens, UniProt P00533); settings: 1 μM; target EGFR
T7 construct: purchased Eurofins/DiscoveRx; host or cells: E. coli BL21-derived host (T7 phage display) for most kinases; HEK-293 for the rest
Experimental: as §1, §2

kinases [9] = biological target: T8, kinases (Homo sapiens, UniProt P36888, D835V); settings: 1 μM; target FLT3(D835V)
T8 construct: purchased Eurofins/DiscoveRx; host or cells: E. coli BL21-derived host (T7 phage display) for most kinases; HEK-293 for the rest
T8 sequence (P36888 27-993 D835V): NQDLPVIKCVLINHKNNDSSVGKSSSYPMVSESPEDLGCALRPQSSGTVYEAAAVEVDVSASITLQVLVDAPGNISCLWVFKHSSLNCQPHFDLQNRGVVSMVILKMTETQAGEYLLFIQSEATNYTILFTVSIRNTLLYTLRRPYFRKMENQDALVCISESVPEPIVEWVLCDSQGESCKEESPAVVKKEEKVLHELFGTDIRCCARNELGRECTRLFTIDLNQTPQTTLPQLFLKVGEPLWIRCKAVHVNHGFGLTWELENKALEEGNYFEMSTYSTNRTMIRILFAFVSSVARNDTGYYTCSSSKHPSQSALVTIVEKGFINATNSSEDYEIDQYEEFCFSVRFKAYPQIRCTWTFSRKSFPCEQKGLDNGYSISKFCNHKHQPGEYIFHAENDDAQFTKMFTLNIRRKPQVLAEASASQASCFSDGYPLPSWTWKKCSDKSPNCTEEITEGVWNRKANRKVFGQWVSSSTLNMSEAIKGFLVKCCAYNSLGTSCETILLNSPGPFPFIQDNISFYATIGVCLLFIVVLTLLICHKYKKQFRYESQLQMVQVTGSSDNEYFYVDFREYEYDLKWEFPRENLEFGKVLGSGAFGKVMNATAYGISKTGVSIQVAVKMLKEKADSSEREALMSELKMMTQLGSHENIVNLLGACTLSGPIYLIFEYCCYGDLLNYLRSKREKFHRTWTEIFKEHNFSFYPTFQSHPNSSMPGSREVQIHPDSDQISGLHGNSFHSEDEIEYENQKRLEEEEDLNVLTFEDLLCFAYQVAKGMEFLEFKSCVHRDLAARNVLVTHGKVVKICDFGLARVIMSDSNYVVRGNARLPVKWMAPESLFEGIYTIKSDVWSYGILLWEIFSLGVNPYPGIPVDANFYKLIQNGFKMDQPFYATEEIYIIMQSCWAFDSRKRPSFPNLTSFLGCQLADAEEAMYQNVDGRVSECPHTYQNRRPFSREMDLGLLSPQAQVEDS
Experimental: as §1, §2

kinases [10] = biological target: T9, kinases (Homo sapiens, UniProt P00519, M351T); settings: 1 μM; target ABL1(M351T)-phosphorylated
T9 construct: purchased Eurofins/DiscoveRx; host or cells: E. coli BL21-derived host (T7 phage display) for most kinases; HEK-293 for the rest
Experimental: as §1, §2

T5 sequence (P10721 26-976 A829P): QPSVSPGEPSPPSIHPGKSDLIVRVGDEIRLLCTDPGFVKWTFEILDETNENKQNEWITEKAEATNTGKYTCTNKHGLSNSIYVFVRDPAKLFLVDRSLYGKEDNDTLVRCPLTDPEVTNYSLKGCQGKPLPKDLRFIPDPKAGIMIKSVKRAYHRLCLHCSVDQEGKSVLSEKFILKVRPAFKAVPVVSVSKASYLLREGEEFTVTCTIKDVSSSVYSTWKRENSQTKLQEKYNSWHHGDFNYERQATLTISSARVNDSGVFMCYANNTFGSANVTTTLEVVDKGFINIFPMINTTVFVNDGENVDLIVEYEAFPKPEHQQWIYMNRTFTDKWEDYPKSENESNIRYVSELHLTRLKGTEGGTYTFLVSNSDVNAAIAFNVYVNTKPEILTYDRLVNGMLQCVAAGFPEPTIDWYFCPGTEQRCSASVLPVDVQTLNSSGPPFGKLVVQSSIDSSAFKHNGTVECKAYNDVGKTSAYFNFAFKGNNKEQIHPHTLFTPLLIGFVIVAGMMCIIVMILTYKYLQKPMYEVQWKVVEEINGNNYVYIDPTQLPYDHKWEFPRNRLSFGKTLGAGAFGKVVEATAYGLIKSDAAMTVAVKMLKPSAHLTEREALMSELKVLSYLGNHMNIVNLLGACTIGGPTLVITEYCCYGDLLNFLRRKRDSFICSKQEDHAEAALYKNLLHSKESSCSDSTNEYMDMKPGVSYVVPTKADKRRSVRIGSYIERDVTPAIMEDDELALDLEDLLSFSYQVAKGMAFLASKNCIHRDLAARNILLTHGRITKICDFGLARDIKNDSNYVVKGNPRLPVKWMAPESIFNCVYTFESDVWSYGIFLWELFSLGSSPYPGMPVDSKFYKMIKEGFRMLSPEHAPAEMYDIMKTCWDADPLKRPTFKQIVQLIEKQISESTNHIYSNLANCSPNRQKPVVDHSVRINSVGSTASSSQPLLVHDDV
T3 sequence (P10721 26-976 V559D/V654A): as the sequence (P10721 26-976 A829P) above, with V534D, V629A, P804A counted along it
T4 sequence (P10721 26-976 V559D/T670I): as the sequence (P10721 26-976 A829P) above, with V534D, T645I, P804A counted along it
T6 sequence (P07949 29-1114 V804M): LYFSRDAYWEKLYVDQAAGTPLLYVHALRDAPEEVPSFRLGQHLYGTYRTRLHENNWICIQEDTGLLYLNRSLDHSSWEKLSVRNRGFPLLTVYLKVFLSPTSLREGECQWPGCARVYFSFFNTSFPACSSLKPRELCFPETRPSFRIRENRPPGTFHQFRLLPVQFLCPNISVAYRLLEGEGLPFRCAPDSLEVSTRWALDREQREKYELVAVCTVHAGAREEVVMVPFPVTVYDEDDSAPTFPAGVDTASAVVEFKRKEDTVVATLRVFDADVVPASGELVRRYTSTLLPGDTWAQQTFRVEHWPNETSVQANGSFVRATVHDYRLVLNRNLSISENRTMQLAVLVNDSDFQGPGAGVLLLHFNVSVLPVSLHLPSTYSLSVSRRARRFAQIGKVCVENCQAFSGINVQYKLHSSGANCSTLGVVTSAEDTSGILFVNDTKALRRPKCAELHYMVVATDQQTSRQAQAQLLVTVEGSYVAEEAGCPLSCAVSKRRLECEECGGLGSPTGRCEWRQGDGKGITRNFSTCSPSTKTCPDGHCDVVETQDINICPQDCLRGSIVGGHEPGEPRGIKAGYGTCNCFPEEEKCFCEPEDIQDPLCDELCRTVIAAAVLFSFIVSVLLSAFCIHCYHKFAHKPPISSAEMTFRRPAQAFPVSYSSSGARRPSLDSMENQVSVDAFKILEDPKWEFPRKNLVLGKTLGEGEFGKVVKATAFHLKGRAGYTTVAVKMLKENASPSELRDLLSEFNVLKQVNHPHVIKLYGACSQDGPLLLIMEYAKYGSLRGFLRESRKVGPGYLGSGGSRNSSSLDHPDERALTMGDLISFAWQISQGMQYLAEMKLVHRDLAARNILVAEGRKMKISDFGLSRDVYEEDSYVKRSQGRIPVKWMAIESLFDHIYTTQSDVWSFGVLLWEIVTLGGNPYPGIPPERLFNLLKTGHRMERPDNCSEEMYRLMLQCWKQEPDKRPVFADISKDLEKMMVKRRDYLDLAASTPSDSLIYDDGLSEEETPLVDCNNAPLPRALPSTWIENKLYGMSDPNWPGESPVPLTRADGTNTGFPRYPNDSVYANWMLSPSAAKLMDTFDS

Structure (SMILES) | % Ctrl, ABL1(Q252H)-nonphosphorylated (kinases [1]) [% Ctrl] | % Ctrl, ABL1(Q252H)-phosphorylated (kinases [1]) [% Ctrl] | % Ctrl, EGFR(L747-E749del, A750P) (kinases [2]) [% Ctrl] | % Ctrl, EGFR(L747-S752del, P753S) (kinases [2]) [% Ctrl] | % Ctrl, EGFR(L747-T751del, Sins) (kinases [2]) [% Ctrl] | % Ctrl, FLT3(ITD) (kinases [2]) [% Ctrl] | % Ctrl, FLT3(ITD, D835V) (kinases [2]) [% Ctrl] | % Ctrl, FLT3(ITD, F691L) (kinases [2]) [% Ctrl] | % Ctrl, EGFR(E746-A750del) (kinases [3]) [% Ctrl] | % Ctrl, KIT(V559D, V654A) (kinases [4]) [% Ctrl] | % Ctrl, KIT(V559D, T670I) (kinases [5]) [% Ctrl] | % Ctrl, KIT(A829P) (kinases [6]) [% Ctrl] | % Ctrl, RET(V804M) (kinases [7]) [% Ctrl] | % Ctrl, EGFR (kinases [8]) [% Ctrl] | % Ctrl, FLT3(D835V) (kinases [9]) [% Ctrl] | % Ctrl, ABL1(M351T)-phosphorylated (kinases [10]) [% Ctrl]
CN1CCOc2cc3c(cc2Cl)NC(=O)/C3=C\c2[nH]ccc2C(=O)N(C)CC1 [Ex. 164, [16a(17)Z]-19-chloro-2,5,8-trimethyl-5,6,7,8,9,10-hexahydro-12,14-(ethanediylidene)dipyrrolo[3,2-i:3′,4′-l][1,4,7]oxadiazacyclopentadecine-4,16(1H,15H)-dione] | 0.1 | 0 | 19 | 47 | 45 | 0.9 | 0.3 | 1 | 18 | 27 | 2.4 | 33 | 2.1 | 95 | 1.1 | 0.3
Cc1cc2c([nH]1)/C=C1\C(=O)Nc3cc(Cl)c(cc31)SCCOCCN(C)C2=O [Ex. 169, [16a(17)Z]-19-chloro-5-methyl-6,7,9,10-tetrahydro-1H-12,14-(ethanediylidene)dipyrrolo[3,4-g:2′,3′-j][1,4,13]oxathiazacyclopentadecine-4,16(5H,15H)-dione] | 0 | 0.3 | 44 | 56 | 30 | 0.9 | 0.4 | 0.1 | 9.9 | 13 | 1.6 | 22 | 0.9 | 42 | 0 | 0.1
